# Measured values from ChEMBL document CHEMBL1137009, “Inhibition of sphingosine-1-phosphate lyase for the treatment of autoimmune disorders” (J Med Chem, 2009).
# Activity calls are given as the source filed them. No cut-off for these calls is given here.
# Legend:
# [1] = system: Mus musculus; assay: (§1) AUC (0 to infinity) in 129/SvEvBrd x C57BL/6 hybrid mouse at 10 mg/kg, po; format: ADME, organism-based, Plasma; parameters: time infinity, dose 10 mg/kg, route oral; details: in vivo
# [2] = Permeability across human Caco-2 cell membrane at 20 uM; format: ADME, cell-based; details: read-out: permeability
# [3] = Half life in 129/SvEvBrd x C57BL/6 hybrid mouse; format: ADME, organism-based; details: in vivo
# [4] = system: Mus musculus; assay: (§2) Oral bioavailability in 129/SvEvBrd x C57BL/6 hybrid mouse at 1 mg/kg, iv and 10 mg/kg, po; format: ADME, organism-based; details: in vivo
# [5] = system: Mus musculus; assay: Induction of lymphopenia in 129/SvEvBrd x C57BL/6 hybrid mouse assessed as change in circulating lymphocyte level at 30 mg/kg, po administered as single dose after 18 hrs by complete blood count analysis relative to control; format: functional
# [6] = Cmax in 129/SvEvBrd x C57BL/6 hybrid mouse at 100 mg/kg, po; format: ADME, organism-based; parameters: dose 100 mg/kg, route oral; details: in vivo
# [7] = AUC in 129/SvEvBrd x C57BL/6 hybrid mouse at 100 mg/kg, po; format: ADME, organism-based; parameters: dose 100 mg/kg, route oral; details: plasma
# [8] = biological target: T1, Sphingosine-1-phosphate lyase 1 (Mus musculus) (UniProt Q8R0X7); assay: Inhibition of sphingosine-1-phosphate lyase in mouse spleen assessed as production of [33P]phosphoethanolamine; format: tissue-based
# T1 sequence (whole entry): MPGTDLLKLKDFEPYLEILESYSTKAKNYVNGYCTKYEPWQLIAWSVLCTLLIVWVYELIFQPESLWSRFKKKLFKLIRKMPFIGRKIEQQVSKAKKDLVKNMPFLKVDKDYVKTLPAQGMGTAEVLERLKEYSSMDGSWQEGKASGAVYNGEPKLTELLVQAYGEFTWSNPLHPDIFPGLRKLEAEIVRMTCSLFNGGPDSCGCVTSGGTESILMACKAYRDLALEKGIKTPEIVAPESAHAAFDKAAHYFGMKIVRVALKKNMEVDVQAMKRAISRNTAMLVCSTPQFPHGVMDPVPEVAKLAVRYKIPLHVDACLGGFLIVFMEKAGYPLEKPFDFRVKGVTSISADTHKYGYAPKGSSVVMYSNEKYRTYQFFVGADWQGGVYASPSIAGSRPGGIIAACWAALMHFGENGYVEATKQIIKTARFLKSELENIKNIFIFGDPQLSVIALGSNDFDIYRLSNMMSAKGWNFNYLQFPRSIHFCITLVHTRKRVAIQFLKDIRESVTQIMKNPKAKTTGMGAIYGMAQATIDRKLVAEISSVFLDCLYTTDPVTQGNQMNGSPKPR
# [9] = system: HepG2; assay: Increase in sphingosine-1-phosphate level in human HepG2 cells relative to control; format: functional
# [10] = system: Mus musculus; assay: Induction of lymphopenia in ip dosed 129/SvEvBrd x C57BL/6 hybrid mouse whole blood assessed as reduction in lymphocyte level by complete blood count analysis after 4 hrs; format: functional, organism-based
# [11] = as §1; format: ADME, organism-based, Plasma; parameters: time infinity, dose 10 mg/kg, route oral; details: 129/SvEvBrd x C57BL/6 hybrid, plasma
# [12] = system: Mus musculus; assay: Toxicity in 129/SvEvBrd x C57BL/6 hybrid mouse at 100 mg/kg, po; format: organism-based; parameters: dose 100 mg/kg, route oral; details: in vivo
# [13] = biological target: T2, Sphingosine-1-phosphate lyase 1 (Mus musculus, UniProt Q8R0X7); assay: Inhibition of sphingosine-1-phosphate lyase in mouse spleen by scintillation counting; format: tissue-based
# T2 sequence (Q8R0X7 whole entry): T1 sequence (whole entry)
# [14] = Cmax in 129/SvEvBrd x C57BL/6 hybrid mouse at 10 mg/kg; format: ADME, organism-based; parameters: dose 10 mg/kg; details: in vivo
# [15] = AUC in 129/SvEvBrd x C57BL/6 hybrid mouse at 10 mg/kg; format: ADME, organism-based; parameters: dose 10 mg/kg; details: plasma
# [16] = Bioavailability in 129/SvEvBrd x C57BL/6 hybrid mouse at 10 mg/kg; format: ADME, organism-based; details: in vivo
# [17] = Protein binding in 129/SvEvBrd x C57BL/6 hybrid mouse plasma at 10 mg/kg; format: ADME, organism-based; parameters: dose 10 mg/kg; details: read-out: PPB
# [18] = system: Mus musculus; assay: Induction of lymphopenia in 129/SvEvBrd x C57BL/6 hybrid mouse whole blood assessed as reduction in lymphocyte level at 100 mg/kg, po after 4 hrs by complete blood count analysis; format: functional, organism-based; parameters: dose 100 mg/kg
# [19] = system: Mus musculus; assay: Induction of lymphopenia in 129/SvEvBrd x C57BL/6 hybrid mouse whole blood assessed as reduction in lymphocyte level at 100 mg/kg, po after 18 hrs by complete blood count analysis; format: functional, organism-based; parameters: dose 100 mg/kg
# [20] = system: Mus musculus; assay: Induction of lymphopenia in 129/SvEvBrd x C57BL/6 hybrid mouse assessed as change in circulating lymphocyte level at 100 mg/kg, po administered as single dose after 18 hrs by complete blood count analysis relative to control; format: functional
# [21] = Clearance in 129/SvEvBrd x C57BL/6 hybrid mouse at 1 mg/kg, iv; format: ADME, organism-based; parameters: dose 1 mg/kg, route intravenous; details: in vivo
# [22] = as §2; format: ADME, organism-based; details: 129/SvEvBrd x C57BL/6 hybrid, in vivo
# [23] = system: Mus musculus; assay: Induction of lymphopenia in 129/SvEvBrd x C57BL/6 hybrid mouse assessed as reduction in lymphocyte level from peripheral circulation at 10 mg/kg by complete blood count analysis; format: functional; parameters: scale not given: the % may be the effect or the level left
# [24] = system: Mus musculus; assay: Reduction in sphingosine-1-phosphate lyase activity in mouse spleen at 100 mg/kg, po after 18 hrs by radioreceptor binding assay; format: functional, organism-based; parameters: dose 100 mg/kg
# [25] = system: Mus musculus; assay: Increase in sphingosine-1-phosphate level in mouse spleen at 100 mg/kg, po after 18 hrs by radioreceptor binding assay relative to control; format: functional
# [26] = Cmax in 129/SvEvBrd x C57BL/6 hybrid mouse; format: ADME, organism-based; details: in vivo
# [27] = Tmax in 129/SvEvBrd x C57BL/6 hybrid mouse; format: ADME, organism-based; details: in vivo
# [28] = Volume of distribution in 129/SvEvBrd x C57BL/6 hybrid mouse; format: ADME, organism-based; details: in vivo
Papp at 20 µM [2] [nm/s],half-life [3] [h],AUC(0-inf) [11] [µM·h],clearance [21] [L/h/kg],bioavailability [22] [%],SMILES,Activity [20] [%],also measured
55.7,2.4,41.1,0.342,33.6,CC(=O)c1nc([C@@H](O)[C@H](O)[C@H](O)CO)cn1C,10,
49,,,,,Cc1scnc1-c1nc([C@@H](O)[C@H](O)[C@H](O)CO)c[nH]1,-7,
,4,6,0.81,14,O=C(c1ccccc1)c1nc([C@@H](O)[C@H](O)[C@H](O)CO)c[nH]1,,Activity [5]: -17%
139,0.9,,,,CC(=O)c1ncc([C@@H](O)[C@H](O)[C@H](O)CO)s1,25,AUC [1]: 2.7 µM·h; F [4]: 65%
,3.3,42.7,0.408,42,CO[C@H](c1c[nH]c(C(C)=O)n1)[C@H](O)[C@H](O)CO,16,
9,1.2,3.4,0.996,,OC[C@@H](O)[C@@H](O)[C@H](O)c1c[nH]c(-c2cocn2)n1,1,
93.7,6.2,10.8,0.42,11,CC(=O)c1nc([C@@H](O)[C@H](O)[C@H](O)CO)c(C)[nH]1,-5,
103,3.5,0.2,0.702,1,CC(=O)c1nc([C@@H](O)[C@H](O)[C@H](O)C(=O)N(C)C)c[nH]1,-15,
51,2.4,1.7,0.984,6,OC[C@@H](O)[C@@H](O)[C@H](O)c1c[nH]c(-c2ncn(Cc3ccccc3)n2)n1,-41,
259,3.2,5.9,1.89,28,OC[C@@H](O)[C@@H](O)[C@H](O)c1c[nH]c(-c2ncc[nH]2)n1,-53,
134,2.1,43.4,0.84,88,CC(=O)c1cccc([C@@H](O)[C@H](O)[C@H](O)CO)n1,45,
,1.7,,,,OC[C@@H](O)[C@@H](O)[C@H](O)c1c[nH]c(C(F)(F)C(F)(F)F)n1,,AUC [1]: 10 µM·h; F [4]: 31%; Activity [5]: -11%
110,4.5,35.8,0.174,14,CC(=O)c1nc([C@@H](O)[C@H](O)[C@H](O)CO)c[nH]1,-41,Activity [24]: Active; fold change (FC) [25]: 22; Cmax [26]: 24.9 µM; Tmax [27]: 0.5 h; Vd [28]: 0.067 L/kg; Activity [5]: -25%
99,5.4,15.7,1.13,25,CC(=O)c1nc([C@@H](O)[C@@H](O)[C@H](O)CO)c[nH]1,-31,

# Second part, the compound before the results:
SMILES,Papp at 20 µM [2] [nm/s],half-life [3] [h],AUC(0-inf) [11] [µM·h],clearance [21] [L/h/kg],bioavailability [22] [%],Activity [20] [%],also measured
CN(C)C(=O)c1nc([C@@H](O)[C@H](O)[C@H](O)CO)c[nH]1,99,4,,,,,AUC [1]: 6.7 µM·h; F [4]: 5%; Activity [5]: -11%
CCCCCCCCCCCC/C=C/C[C@@H](O)[C@H](CO)NCc1c(CO)cnc(C)c1O,,,,,,,Cmax [6]: < 1 µM; AUC [7]: < 1 µM·h; Activity [8]: inactive; Activity [9]: 275%; Activity [10]: Non-toxic
CC(F)(F)c1nc([C@@H](O)[C@H](O)[C@H](O)CO)c[nH]1,111,1,4.7,,,,Activity [5]: -58%; Activity [12]: Toxic
Nc1nc(N2CCCCC2)nc2c1c(=O)c(C(=O)NCc1ccc(-n3ccnc3)cc1)cn2CC1CCCO1 (centres undefined),,,,,,,IC50 [13]: 2.1 µM; Cmax [14]: 451 µM; AUC [15]: 1870 µM·h; bioavailability [16]: 100%; fraction unbound [17]: < 0.01; Activity [18]: Non-toxic; Activity [19]: Non-toxic
CC(O)c1nc([C@@H](O)[C@H](O)[C@H](O)CO)c[nH]1 (some centres undefined),41,4.4,,,,-15,AUC [1]: 44.5 µM·h; F [4]: 22%
CC(=O)c1nc([C@H](O)[C@@H](O)[C@@H](O)CO)c[nH]1,131,6,18,0.402,17,0,
Cc1nc(-c2nc([C@@H](O)[C@H](O)[C@H](O)CO)c[nH]2)cs1,199,2.1,6.9,1.16,23,0,
OC[C@@H](O)[C@@H](O)[C@H](O)c1c[nH]c(-c2cscn2)n1,,4.2,5.8,0.762,12,-33,
OC[C@@H](O)[C@@H](O)[C@H](O)c1c[nH]c(-c2nc[nH]n2)n1,10,,,,,7,
OC[C@@H](O)[C@@H](O)[C@H](O)c1c[nH]c(-c2ncccn2)n1,109,2.4,3,0.912,7,-26,
CC(=O)N/N=C(\C)c1nc([C@@H](O)[C@H](O)[C@H](O)CO)c[nH]1,90,2.6,3.6,0.534,5,,Activity [5]: -41%
CCCCCCCCc1ccc(CCC(N)(CO)CO)cc1 [FINGOLIMOD],,,,,,,Activity [23]: 90%
Cn1cnc(-c2nc([C@@H](O)[C@H](O)[C@H](O)CO)c[nH]2)c1,262,1.6,2.6,0.546,3,-5,
CC(=O)c1nc([C@@H](O)[C@H](O)[C@H](O)CO)c(-c2ccccc2)[nH]1,31.1,1.9,11.5,1.43,49.6,40,
OC[C@@H](O)[C@@H](O)[C@H](O)c1c[nH]c(-c2ncon2)n1,141,0.7,3.2,0.678,5,-16,
CCc1[nH]c(C(C)=O)nc1[C@@H](O)[C@H](O)[C@H](O)CO,79.3,2.8,6.4,1.04,17.1,8,
OC[C@@H](O)[C@@H](O)[C@H](O)c1c[nH]c(-c2cnccn2)n1,198,1.9,4.7,0.804,10,-6,
